# Assay results from patent US20240335431A1, “1-H-PYRROLO[2,3-c]PYRIDINE COMPOUNDS” (Acerta Pharma B.V., priority 2023, published 2024).
# Read-outs that look alike come from different tables or passages of the source.
# Experiments:
# [1] = tested on: MOLM-13 cells; assay: Proliferation assay, MOLM-13 (CellTiter-Glo, 7 days); assay type: cell-based, human
# How it was run: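 Cells seeded at 125 (MOLM-13), 300 (MV4;11), 75 (OCI-AML3) or 200 (HEL) per well were exposed to 3.16-fold compound dilutions (0.1% DMSO) for 7 days at 37° C. Viability by CellTiter-Glo luminescence, normalized to DMSO (100%) and day-0 plate (0%); IC50 from one-site dose-response fit.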
# [2] = Caco-2 cell monolayers intrinsic permeation assay in the presence of efflux inhibitors; assay type: in vitro ADME; settings: Caco-2, with efflux inhibitors
# Excerpt: Caco-2 cells were obtained from American Type Culture Collection (ATCC). HEPES, penicillin, streptomycin, bovine serum albumin (BSA) were obtained from Beijing Xinjingke Biotechnology Co, Ltd. Fetal bovine serum, Hank's balanced salt solution (HBSS) and non-essential amino acids (NEAA) were purchased from Gibco. Dulbecco's Modified Eagle's Medium (DMEM) was purchased from Corning and MES from Sigma. HTS Transwell-24 permeable supports were purchased from Corning. Zosuquidar and Ko-143 were obtained from MedChemExpress and Benzbromarone from Sigma.
# The Caco-2 cell culture medium consisted of DMEM with high glucose and L-glutamine supplemented with 10% FBS, 0.1 mg/mL streptomycin, 100 units of penicillin, 0.6 mg/mL kanamycin sulfate and 1×NEAA. […] culture medium was added to each Transwell insert with 800 mL added to each well of the reservoir. After incubation at 37° C. in 5% CO2 for 1 hour, the plates were ready for seeding.
# The cells were cultivated in T-75 flasks at 37° C., 5% CO2, 95% relative humidity. At 80 to 90% confluence, cells were treated with trypsin/EDTA treatment until they became detached. The trypsin/EDTA was inactivated by adding excess serum containing medium. The cell suspension was centrifuged at 120 g for 10 minutes followed by resuspension of the cell pellet in seeding medium at a cell density of 7.92×10^5 cells/mL.
# […] of the resulting cell suspension was added to each well of the Transwell plate and incubated for 14 to 18 days, with medium replaced every other day. After incubation for 14 to 18 days, the cells should have reached confluence and should be tested for electrical resistance using a Millicel Epithelial Volt-Ohm measuring system (Millipore).
# The cell monolayers were washed twice with pre-warmed HBSS and incubated at 37° C. for 30 minutes under gentle shaking (480 rpm).
# The compound under test was presented as a 10 mM DMSO stock solution. 2 mL of the 10 mM stock was added to 8 mL DMSO to produce a 2 mM stock. 2 mL was added to 398 mL of HBSS containing 10 mM Zosuquidar, 30 mM Benzbromarone and 2 mM KO-143 to make a […] solution.
# 210 mL of the test compound solution was added to the apical compartment of the Transwell plate, with a 10 mL sample taken to act as the time 0 sample. The wells of the receiver (basolateral) compartment were filled with 800 mL HBSS (containing the efflux inhibitors). The plates were incubated at 37° C. with shaking at 480 rpm for 120 minutes with sampling at 45 and 120 minutes.
# At each sampling time (0, 45 and 120 minutes) 10 mL was removed from the apical compartment and add to 90 mL (HBSS containing the efflux inhibitors). 100 mL was removed from each basolateral compartment. 3 volumes of cold acetonitrile containing internal standard was added to each sample and vortex mixed for 10 minutes at 100 rpm. Samples were then centrifuged at 400 rpm for 20 minutes. 50 mL of the supernatant was taken for LC/MS/MS analysis to determine compound concentration.
# The apparent permeability (Papp), in units of centimetre per second, were calculated for Caco-2 drug transport using the following equation: […]
# Where CR is the concentration of compound in the receiver side at the respective time point, CD is the concentration of compound in the donor side at the respective timepoint. Area is the surface area of the membrane and time is 4500 seconds (75×60 seconds).
Structure (SMILES),"IC50 ([1]; Homo sapiens, MOLM-13, 168 h) [nM]",Papp A→B [2] [×10⁻⁶ cm/s],IC50 [1] [nM]
"Cc1c(C(=O)C2CCN(C(=O)[C@@H]3CCC(C)(C)N3)CC2)c2ccncc2n1-c1ccc(F)cc1C(=O)N(C(C)C)C(C)C (single isomer, unassigned) [Example 56-1]",–,2.8,1930
"Cc1c(C(=O)C2CCN(C(=O)[C@H]3NC[C@@H]4C[C@@H]43)CC2)c2ccncc2n1-c1ccc(F)cc1-c1cnccc1C(C)C [Example 54, (1-((1S,2S,5R)-3-Azabicyclo[3.1.0]hexane-2-carbonyl)piperidin-4-yl)(1-(4-fluoro-2-(4-isopropylpyridin-3-yl)phenyl)-2-methyl-1H-pyrrolo[2,3-c]pyridin-3-yl)methanone]",49,4,–
"CC(C)c1ncncc1-c1cc(F)ccc1-n1cc(C(=O)C2CCN(C(=O)[C@H]3N[C@@H]4CC[C@H]3C4)CC2)c2ccncc21 [Example 37, (1-((1R,3S,4S)-2-Azabicyclo[2.2.1]heptane-3-carbonyl)piperidin-4-yl)(1-(4-fluoro-2-(4-isopropylpyrimidin-5-yl)phenyl)-1H-pyrrolo[2,3-c]pyridin-3-yl)methanone]",68,1,–
"Cc1c(C(=O)[C@@H]2CCN(C(=O)[C@H]3NC[C@@H]4C[C@@H]43)[C@@H](C)C2)c2ccncc2n1-c1ccc(F)cc1C(=O)N(CC(F)(F)F)C(C)C (single isomer, unassigned) [Example 53-3, 2-(3-((2R*,4S*)-1-((1S,2S,5R)-3-Azabicyclo[3.1.0]hexane-2-carbonyl)-2-methylpiperidine-4-carbonyl)-2-methyl-1H-pyrrolo[2,3-c]pyridin-1-yl)-5-fluoro-N-isopropyl-N-(2,2,2-trifluoroethyl)benzamide]",–,3.6,15
"Cc1c(C(=O)C2CCN(C(=O)[C@H]3NC[C@@H]4C[C@@H]43)CC2)c2ccncc2n1-c1ccc(F)cc1C(=O)N(CC(F)(F)F)C(C)C (single isomer, unassigned) [Example 51-1]",–,1.7,1610
"CC(C)c1cnccc1-c1cc(F)ccc1-n1cc(C(=O)C2CN(C(=O)[C@H]3N[C@@H]4CC[C@H]3C4)C2)c2ccncc21.O=CO [Example 11, (1-((1R,3S,4S)-2-Azabicyclo[2.2.1]heptane-3-carbonyl)azetidin-3-yl)(1-(4-fluoro-2-(3-isopropylpyridin-4-yl)phenyl)-1H-pyrrolo[2,3-c]pyridin-3-yl)methanone 1·formic acid]",50,0.7,–
"CCN(C(=O)c1cc(F)ccc1-n1c(C)c(C(=O)C2CCN(C(=O)[C@H]3NC[C@@H]4C[C@@H]43)CC2)c2ccncc21)C(C)C [Example 47, 2-(3-(1-((1S,2S,5R)-3-Azabicyclo[3.1.0]hexane-2-carbonyl)piperidine-4-carbonyl)-2-methyl-1H-pyrrolo[2,3-c]pyridin-1-yl)-N-ethyl-5-fluoro-N-isopropylbenzamide]",–,1.9,42
"CCN(C(=O)c1cc(F)ccc1-n1c(C)c(C(=O)[C@@H]2CCN(C(=O)[C@@H]3CC[C@@H](C)N3)[C@@H](C)C2)c2ccncc21)C(C)C (stereo in doubt) [Example 65, N-Ethyl-5-fluoro-N-isopropyl-2-(2-methyl-3-((2S,4RS)-2-methyl-1-((2S,5R)-5-methylpyrrolidine-2-carbonyl)piperidine-4-carbonyl)-1H-pyrrolo[2,3-c]pyridin-1-yl)benzamide]",56,1.7,–
"Cc1c(C(=O)[C@@H]2CCN(C(=O)[C@@H]3CC[C@@H](C)N3)[C@@H](C)C2)c2ccncc2n1-c1ccc(F)cc1C(=O)N(C(C)C)C(C)C (stereo in doubt) [Example 64, 5-Fluoro-N,N-diisopropyl-2-(2-methyl-3-((2S,4RS)-2-methyl-1-((2S,5R)-5-methylpyrrolidine-2-carbonyl)piperidine-4-carbonyl)-1H-pyrrolo[2,3-c]pyridin-1-yl)benzamide]",53,4.3,–

# Now from value to molecule:
"IC50 ([1]; Homo sapiens, MOLM-13, 168 h) [nM]",Papp A→B [2] [×10⁻⁶ cm/s],IC50 [1] [nM],Structure (SMILES)
111,0.5,–,"C[C@@H]1CCC[C@H](C)N1C(=O)c1cc(F)ccc1-n1cc(C(=O)C2CCN(C(=O)[C@H]3N[C@@H]4CC[C@H]3C4)CC2)c2ccncc21 [Example 33, (1-((1R,3S,4S)-2-Azabicyclo[2.2.1]heptane-3-carbonyl)piperidin-4-yl)(1-(2-((2R,6S)-2,6-dimethylpiperidine-1-carbonyl)-4-fluorophenyl)-1H-pyrrolo[2,3-c]pyridin-3-yl)methanone]"
38,1.9,–,"CC(C)N(C(=O)c1cc(F)ccc1-n1cc(C(=O)C2CCN(C(=O)[C@@H]3CCC(C)(C)N3)CC2)c2ccncc21)C(C)C [Example 27, (S)-2-(3-(1-(5,5-Dimethylpyrrolidine-2-carbonyl)piperidine-4-carbonyl)-1H-pyrrolo[2,3-c]pyridin-1-yl)-5-fluoro-N,N-diisopropylbenzamide]"
38,0.1,–,"CCN(C(=O)c1cc(F)ccc1-n1cc(C(=O)C2CCN(C(=O)[C@H]3N[C@@H]4CC[C@H]3C4)CC2)c2ccncc21)C(C)C [Example 31, 2-(3-(1-((1R,3S,4S)-2-Azabicyclo[2.2.1]heptane-3-carbonyl)piperidine-4-carbonyl)-1H-pyrrolo[2,3-c]pyridin-1-yl)-N-ethyl-5-fluoro-N-isopropylbenzamide]"
142,0.2,–,"CCN(C(=O)c1cc(F)ccc1-n1cc(C(=O)C2CN(C(=O)[C@H]3N[C@@H]4CC[C@H]3C4)C2)c2ccncc21)C(C)C [Example 8, 2-(3-(1-((1R,3S,4S)-2-Azabicyclo[2.2.1]heptane-3-carbonyl)azetidine-3-carbonyl)-1H-pyrrolo[2,3-c]pyridin-1-yl)-N-ethyl-5-fluoro-N-isopropylbenzamide]"
57,3.1,–,"C=C1C[C@@H]2CC[C@H]1[C@@H](C(=O)N1CCC(C(=O)c3cn(-c4ccc(F)cc4C(=O)N(C(C)C)C(C)C)c4cnccc34)CC1)N2 [Example 18, 5-Fluoro-N,N-diisopropyl-2-(3-(1-((1S,3S,4R)-5-methylene-2-azabicyclo[2.2.2]-octane-3-carbonyl)piperidine-4-carbonyl)-1H-pyrrolo[2,3-c]pyridin-1-yl)benzamide]"
60,0.6,–,"CC(C)n1nccc1-c1cc(F)ccc1-n1cc(C(=O)C2CCN(C(=O)[C@H]3N[C@@H]4CC[C@H]3C4)CC2)c2ccncc21 [Example 36, (1-((1R,3S,4S)-2-Azabicyclo[2.2.1]heptane-3-carbonyl)piperidin-4-yl)(1-(4-fluoro-2-(1-isopropyl-1H-pyrazol-5-yl)phenyl)-1H-pyrrolo[2,3-c]pyridin-3-yl)methanone]"
34,1.7,–,"CC(C)N(C(=O)c1cc(F)ccc1-n1cc(C(=O)C2CCN(C(=O)[C@H]3NC[C@@H]4CCC[C@@H]43)CC2)c2ccncc21)C(C)C [Example 21, 5-Fluoro-N,N-diisopropyl-2-(3-(1-((1S,3αR,6αS)-octahydrocyclopenta[c]pyrrole-1-carbonyl)piperidine-4-carbonyl)-1H-pyrrolo[2,3-c]pyridin-1-yl)benzamide]"
121,0.5,–,"CCN(C(=O)c1cc(F)ccc1-n1cc(C(=O)C2CN(C(=O)[C@H]3NC4CCC3CC4)C2)c2ccncc21)C(C)C [Example 9, (S)-2-(3-(1-(2-Azabicyclo[2.2.2]octane-3-carbonyl)azetidine-3-carbonyl)-1H-pyrrolo[2,3-c]pyridin-1-yl)-N-ethyl-5-fluoro-N-isopropylbenzamide]"
